Values joined by “and” are separate entries in the source; they are usually repeats but may differ in a detail not shown here. Equal values may be shown once. Numbers after ± are expanded uncertainties.
Conditions: horizontal capillary tube

O [water]
Conditions | surface tension liquid-gas
249.9 K, Metastable liquid | 78.88 ± 0.8 mN/m and 78.87 ± 0.8 mN/m
249.91 K, Metastable liquid | 78.91 ± 0.8 mN/m
250.79 K, Metastable liquid | 78.85 ± 0.8 mN/m
250.8 K, Metastable liquid | 78.72 ± 0.78 mN/m
250.81 K, Metastable liquid | 78.72 ± 0.78 mN/m
250.82 K, Metastable liquid | 78.72 ± 0.78 mN/m and 78.77 ± 0.78 mN/m and 78.69 ± 0.78 mN/m
251.37 K, Metastable liquid | 78.69 ± 0.8 mN/m and 78.66 ± 0.8 mN/m
251.39 K, Metastable liquid | 78.68 ± 0.8 mN/m
251.91 K, Metastable liquid | 78.65 ± 0.8 mN/m
251.92 K, Metastable liquid | 78.65 ± 0.8 mN/m
252.81 K, Metastable liquid | 78.39 ± 0.78 mN/m
252.82 K, Metastable liquid | 78.47 ± 0.78 mN/m
252.86 K, Metastable liquid | 78.51 ± 0.8 mN/m and 78.48 ± 0.8 mN/m and 78.47 ± 0.8 mN/m
252.88 K, Metastable liquid | 78.38 ± 0.78 mN/m and 78.4 ± 0.78 mN/m and 78.41 ± 0.78 mN/m
253.36 K, Metastable liquid | 78.37 ± 0.78 mN/m and 78.4 ± 0.78 mN/m
253.79 K, Metastable liquid | 78.34 ± 0.78 mN/m
253.81 K, Metastable liquid | 78.27 ± 0.78 mN/m
254.9 K, Metastable liquid | 78.3 ± 0.8 mN/m
254.91 K, Metastable liquid | 78.28 ± 0.8 mN/m
255.29 K, Metastable liquid | 78.03 ± 0.8 mN/m
255.32 K, Metastable liquid | 78.13 ± 0.78 mN/m
255.33 K, Metastable liquid | 78.15 ± 0.78 mN/m
255.34 K, Metastable liquid | 78.07 ± 0.78 mN/m [middle of 4 runs]
255.84 K, Metastable liquid | 78.05 ± 0.78 mN/m and 78.06 ± 0.78 mN/m
255.85 K, Metastable liquid | 78.07 ± 0.78 mN/m
256.33 K, Metastable liquid | 77.91 ± 0.78 mN/m
256.34 K, Metastable liquid | 77.97 ± 0.78 mN/m
256.87 K, Metastable liquid | 77.86 ± 0.78 mN/m and 77.87 ± 0.78 mN/m
257.83 K, Metastable liquid | 77.72 ± 0.78 mN/m
257.84 K, Metastable liquid | 77.75 ± 0.78 mN/m
257.87 K, Metastable liquid | 77.94 ± 0.8 mN/m
257.88 K, Metastable liquid | 77.92 ± 0.8 mN/m
258.8 K, Metastable liquid | 77.63 ± 0.78 mN/m
258.81 K, Metastable liquid | 77.61 ± 0.78 mN/m
259.3 K, Metastable liquid | 77.59 ± 0.78 mN/m and 77.6 ± 0.78 mN/m
259.8 K, Metastable liquid | 77.54 ± 0.78 mN/m and 77.5 ± 0.78 mN/m
260.83 K, Metastable liquid | 77.35 ± 0.78 mN/m
260.84 K, Metastable liquid | 77.36 ± 0.78 mN/m
261.8 K, Metastable liquid | 77.24 ± 0.76 mN/m
261.81 K, Metastable liquid | 77.2 ± 0.76 mN/m
262.27 K, Metastable liquid | 77.23 ± 0.78 mN/m
262.28 K, Metastable liquid | 77.21 ± 0.78 mN/m
262.82 K, Metastable liquid | 77.04 ± 0.78 mN/m and 77.06 ± 0.78 mN/m
262.83 K, Metastable liquid | 77.07 ± 0.78 mN/m
263.26 K, Metastable liquid | 77 ± 0.76 mN/m
263.27 K, Metastable liquid | 77.01 ± 0.76 mN/m
263.76 K, Metastable liquid | 76.93 ± 0.78 mN/m
263.77 K, Metastable liquid | 76.91 ± 0.78 mN/m and 76.87 ± 0.78 mN/m
265.74 K, Metastable liquid | 76.71 ± 0.78 mN/m
265.75 K, Metastable liquid | 76.75 ± 0.78 mN/m
265.76 K, Metastable liquid | 76.61 ± 0.76 mN/m and 76.68 ± 0.76 mN/m and 76.64 ± 0.76 mN/m
265.77 K, Metastable liquid | 76.6 ± 0.78 mN/m
265.78 K, Metastable liquid | 76.61 ± 0.78 mN/m
266.23 K, Metastable liquid | 76.6 ± 0.76 mN/m and 76.58 ± 0.76 mN/m
266.74 K, Metastable liquid | 76.55 ± 0.76 mN/m and 76.54 ± 0.76 mN/m
268.21 K, Metastable liquid | 76.34 ± 0.76 mN/m and 76.3 ± 0.76 mN/m
268.7 K, Metastable liquid | 76.22 ± 0.8 mN/m
269.18 K, Metastable liquid | 76.23 ± 0.76 mN/m
269.19 K, Metastable liquid | 76.24 ± 0.76 mN/m
269.36 K, Metastable liquid | 76.19 ± 0.76 mN/m
269.69 K, Metastable liquid | 76.1 ± 0.76 mN/m
270.17 K, Metastable liquid | 76.05 ± 0.76 mN/m
270.65 K, Metastable liquid | 76.02 ± 0.76 mN/m
270.67 K, Metastable liquid | 76.02 ± 0.76 mN/m
272.68 K, Metastable liquid | 75.72 ± 0.76 mN/m
272.69 K, Metastable liquid | 75.75 ± 0.76 mN/m
273.56 K, Metastable liquid | 75.62 ± 0.74 mN/m
273.61 K, Metastable liquid | 75.56 ± 0.78 mN/m
273.64 K, Metastable liquid | 75.58 ± 0.74 mN/m
273.69 K, Metastable liquid | 75.61 ± 0.78 mN/m and 75.64 ± 0.78 mN/m
275.62 K, Liquid | 75.24 ± 0.76 mN/m
275.63 K, Liquid | 75.28 ± 0.76 mN/m and 75.24 ± 0.76 mN/m
276.61 K, Liquid | 75.19 ± 0.76 mN/m
276.63 K, Liquid | 75.19 ± 0.76 mN/m and 75.16 ± 0.76 mN/m
278.09 K, Liquid | 74.96 ± 0.74 mN/m
278.11 K, Liquid | 74.98 ± 0.74 mN/m
279.56 K, Liquid | 74.68 ± 0.74 mN/m
279.58 K, Liquid | 74.74 ± 0.74 mN/m
280.58 K, Liquid | 74.59 ± 0.74 mN/m
280.59 K, Liquid | 74.56 ± 0.74 mN/m and 74.58 ± 0.74 mN/m
281.55 K, Liquid | 74.41 ± 0.74 mN/m
282.06 K, Liquid | 74.39 ± 0.74 mN/m and 74.37 ± 0.74 mN/m
283.5 K, Liquid | 74.17 ± 0.74 mN/m
283.59 K, Liquid | 74.17 ± 0.74 mN/m
283.6 K, Liquid | 74.15 ± 0.74 mN/m
283.67 K, Liquid | 74.15 ± 0.74 mN/m
284.61 K, Liquid | 74.14 ± 0.74 mN/m
284.62 K, Liquid | 74.11 ± 0.74 mN/m
292 K, Liquid | 72.91 ± 0.74 mN/m and 72.88 ± 0.74 mN/m
293.63 K, Liquid | 72.7 ± 0.76 mN/m and 72.67 ± 0.76 mN/m
293.66 K, Liquid | 72.67 ± 0.74 mN/m and 72.7 ± 0.74 mN/m
295.63 K, Liquid | 72.36 ± 0.74 mN/m
295.65 K, Liquid | 72.33 ± 0.74 mN/m

Reference: the NIST ThermoML archive (doi:10.1021/acs.jced.7b00519)
